Values of other authors, collected in patent CN104352465A, “一种不含二氧化硅的琥珀酸普芦卡必利药物组合物及其制备方法” (CHENGDU SINO-STRONG PHARMACEUTICAL Co Ltd, priority 2014, dated 2015).

Conditions: within shelf life, with the diluent lactose monohydrate

COCCCN1CCC(NC(=O)c2cc(Cl)c(N)c3c2OCC3)CC1.O=C(O)CCC(=O)O [琥珀酸普芦卡必利, 4-氨基-5-氯-2,3-二氢-N-[1-(3-甲氧基丙基)-4-哌啶基]-7-苯并呋喃甲酰胺丁二酸盐]
adduct formation with lactose monohydrate: 形成乳糖加合物
